Results as given in PMC8213057, “Targeting ALK2: An Open Science Approach to Developing Therapeutics for the Treatment of Diffuse Intrinsic Pontine Glioma” (Journal of Medicinal Chemistry, 2020).

Tests used:
AKT1 = AKT1 (Homo sapiens, UniProt P31749); assay: biochemical; settings: read-out: % enzyme activity, 1 μM; Run 1, Run 2
STK38/NDR1 = STK38/NDR1 (Homo sapiens, UniProt Q15208); settings: 1 μM; Run 1, Run 2
GRK6 = GRK6 (Homo sapiens, UniProt P43250); settings: 1 μM; Run 1, Run 2
DMPK2 = DMPK2 (Homo sapiens, UniProt Q6DT37); settings: 1 μM; Run 1, Run 2
PKCmu/PRKD1 = target: T1, PKCmu/PRKD1 (Homo sapiens, UniProt Q15139); assay: biochemical; settings: read-out: % enzyme activity, 1 μM; Run 1, Run 2
T1 sequence (Q15139 1-912): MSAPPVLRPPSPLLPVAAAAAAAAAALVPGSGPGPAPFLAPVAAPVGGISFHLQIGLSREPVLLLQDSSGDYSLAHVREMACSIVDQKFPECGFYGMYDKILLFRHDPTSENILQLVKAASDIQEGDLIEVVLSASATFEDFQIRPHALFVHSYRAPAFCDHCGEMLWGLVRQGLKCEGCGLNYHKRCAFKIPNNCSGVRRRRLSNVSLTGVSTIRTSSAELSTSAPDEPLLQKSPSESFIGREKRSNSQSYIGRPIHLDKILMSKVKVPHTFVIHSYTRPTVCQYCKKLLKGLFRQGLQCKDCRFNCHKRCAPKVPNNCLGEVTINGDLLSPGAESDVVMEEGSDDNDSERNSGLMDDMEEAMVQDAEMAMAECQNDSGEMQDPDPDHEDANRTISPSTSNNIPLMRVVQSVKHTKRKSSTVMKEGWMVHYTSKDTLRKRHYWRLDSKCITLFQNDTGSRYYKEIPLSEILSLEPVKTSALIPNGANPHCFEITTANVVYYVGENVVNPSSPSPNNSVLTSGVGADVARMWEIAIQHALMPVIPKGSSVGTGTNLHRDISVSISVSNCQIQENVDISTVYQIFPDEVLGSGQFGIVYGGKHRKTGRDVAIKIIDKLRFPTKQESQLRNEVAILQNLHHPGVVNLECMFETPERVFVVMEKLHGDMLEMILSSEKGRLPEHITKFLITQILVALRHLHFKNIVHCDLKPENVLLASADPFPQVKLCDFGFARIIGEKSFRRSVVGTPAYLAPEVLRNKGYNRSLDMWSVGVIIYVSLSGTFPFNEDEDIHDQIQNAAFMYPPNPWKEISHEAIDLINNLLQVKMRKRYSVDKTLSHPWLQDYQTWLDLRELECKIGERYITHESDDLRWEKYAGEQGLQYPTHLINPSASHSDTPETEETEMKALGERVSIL

RSK3 = RSK3 (Homo sapiens, UniProt Q15349); assay: biochemical; settings: read-out: % enzyme activity, 1 μM; Run 1, Run 2
NLK = target: T2, NLK (Homo sapiens, UniProt Q9UBE8); assay: 375-member kinase panel; type: biochemical; settings: Run 1, Run 2; for % enzyme activity: 1 μM; for remaining activity at 1 µM: read-out: % enzyme activity, 1 μM
T2 construct: purchased Reaction Biology Corporation
T2 sequence (Q9UBE8 1-527): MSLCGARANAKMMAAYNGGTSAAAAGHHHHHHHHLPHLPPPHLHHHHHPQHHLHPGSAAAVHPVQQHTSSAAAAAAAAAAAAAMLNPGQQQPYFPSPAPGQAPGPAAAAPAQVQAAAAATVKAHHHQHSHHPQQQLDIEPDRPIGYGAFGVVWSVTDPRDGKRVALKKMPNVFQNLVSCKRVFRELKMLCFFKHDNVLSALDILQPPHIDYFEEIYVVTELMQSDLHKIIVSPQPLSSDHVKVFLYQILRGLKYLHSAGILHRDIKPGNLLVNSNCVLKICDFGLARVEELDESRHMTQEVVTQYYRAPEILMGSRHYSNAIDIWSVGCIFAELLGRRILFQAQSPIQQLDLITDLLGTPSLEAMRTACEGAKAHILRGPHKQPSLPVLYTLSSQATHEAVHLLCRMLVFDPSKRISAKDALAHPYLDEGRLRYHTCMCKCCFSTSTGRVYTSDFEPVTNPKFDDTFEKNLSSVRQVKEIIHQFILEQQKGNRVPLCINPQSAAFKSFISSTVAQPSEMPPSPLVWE

Caco-2 cells = assay: Caco-2 permeability assay; settings: 5 μM; for Papp_AB: Caco-2, apical to basolateral; for Papp_BA: Caco-2, basolateral to apical
LRRK2 = LRRK2 (Homo sapiens, UniProt Q5S007); settings: 1 μM; Run 1, Run 2
BRSK2 = target: T3, BRSK2 (Homo sapiens, UniProt Q8IWQ3); settings: 1 μM; Run 1, Run 2
T3 sequence (Q8IWQ3 1-736): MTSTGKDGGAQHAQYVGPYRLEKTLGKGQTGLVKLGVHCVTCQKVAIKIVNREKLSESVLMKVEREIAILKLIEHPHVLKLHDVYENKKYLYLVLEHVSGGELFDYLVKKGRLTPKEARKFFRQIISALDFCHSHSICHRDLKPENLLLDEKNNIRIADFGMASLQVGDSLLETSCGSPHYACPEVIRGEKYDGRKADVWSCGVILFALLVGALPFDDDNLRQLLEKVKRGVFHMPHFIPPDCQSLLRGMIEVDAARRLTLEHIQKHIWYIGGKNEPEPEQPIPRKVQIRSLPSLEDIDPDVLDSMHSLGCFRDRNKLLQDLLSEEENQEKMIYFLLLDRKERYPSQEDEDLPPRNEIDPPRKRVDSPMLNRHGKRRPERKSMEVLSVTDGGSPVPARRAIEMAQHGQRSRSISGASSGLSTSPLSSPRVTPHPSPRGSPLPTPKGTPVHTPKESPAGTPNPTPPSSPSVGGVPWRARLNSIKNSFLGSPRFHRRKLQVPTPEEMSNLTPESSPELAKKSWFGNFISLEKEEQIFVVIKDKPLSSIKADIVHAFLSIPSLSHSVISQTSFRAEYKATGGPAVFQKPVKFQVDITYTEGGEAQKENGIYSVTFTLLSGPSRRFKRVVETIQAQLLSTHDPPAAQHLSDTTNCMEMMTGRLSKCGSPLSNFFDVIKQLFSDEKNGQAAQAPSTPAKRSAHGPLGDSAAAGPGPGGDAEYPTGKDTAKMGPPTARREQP

MSK2/RPS6KA4 = MSK2/RPS6KA4 (Homo sapiens, UniProt O75676); settings: 1 μM; Run 1, Run 2
LIMK2 = LIMK2 (Homo sapiens, UniProt P53671); assay: biochemical; settings: read-out: % enzyme activity, 1 μM; Run 1, Run 2
CDK2/Cyclin A1 = CDK2/Cyclin A1 (Homo sapiens, UniProt P24941); assay: biochemical; settings: read-out: % enzyme activity, 1 μM; Run 1, Run 2

Sequence of STK38/NDR1 (Q15208 whole entry): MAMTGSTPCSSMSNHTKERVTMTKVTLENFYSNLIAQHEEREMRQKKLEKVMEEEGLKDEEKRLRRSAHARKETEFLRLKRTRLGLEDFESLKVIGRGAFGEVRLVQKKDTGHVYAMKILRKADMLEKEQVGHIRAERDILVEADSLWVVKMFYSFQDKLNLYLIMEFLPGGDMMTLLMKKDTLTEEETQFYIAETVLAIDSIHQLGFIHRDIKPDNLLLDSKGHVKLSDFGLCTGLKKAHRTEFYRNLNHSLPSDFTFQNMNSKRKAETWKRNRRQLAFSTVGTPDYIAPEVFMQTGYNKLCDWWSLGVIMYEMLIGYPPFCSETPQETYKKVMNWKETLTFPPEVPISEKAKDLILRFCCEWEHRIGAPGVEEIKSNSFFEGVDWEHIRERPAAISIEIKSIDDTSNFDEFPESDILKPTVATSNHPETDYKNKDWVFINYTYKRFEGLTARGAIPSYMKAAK
Sequence of RSK3 (Q15349 whole entry): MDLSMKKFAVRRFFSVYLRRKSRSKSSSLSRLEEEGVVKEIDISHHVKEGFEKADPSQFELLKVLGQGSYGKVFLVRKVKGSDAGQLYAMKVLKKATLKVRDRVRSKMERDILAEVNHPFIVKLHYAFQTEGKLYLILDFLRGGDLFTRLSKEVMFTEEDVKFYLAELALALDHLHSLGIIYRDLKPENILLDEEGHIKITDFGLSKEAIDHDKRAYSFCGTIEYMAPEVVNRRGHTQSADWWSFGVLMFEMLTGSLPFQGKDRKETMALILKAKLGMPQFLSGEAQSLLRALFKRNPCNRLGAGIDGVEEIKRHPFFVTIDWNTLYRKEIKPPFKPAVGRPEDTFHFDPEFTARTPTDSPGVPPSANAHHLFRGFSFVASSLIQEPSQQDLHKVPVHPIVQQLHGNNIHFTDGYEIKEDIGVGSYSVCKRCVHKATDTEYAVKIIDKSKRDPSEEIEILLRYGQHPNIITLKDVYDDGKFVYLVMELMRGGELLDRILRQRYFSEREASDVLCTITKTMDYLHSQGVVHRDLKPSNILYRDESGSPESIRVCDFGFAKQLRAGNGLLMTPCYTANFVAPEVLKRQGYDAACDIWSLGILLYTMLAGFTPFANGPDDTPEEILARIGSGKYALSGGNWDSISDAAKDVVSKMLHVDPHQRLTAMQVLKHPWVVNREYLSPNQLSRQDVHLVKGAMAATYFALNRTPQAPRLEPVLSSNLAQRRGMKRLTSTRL
Sequence of AKT1 (P31749 whole entry): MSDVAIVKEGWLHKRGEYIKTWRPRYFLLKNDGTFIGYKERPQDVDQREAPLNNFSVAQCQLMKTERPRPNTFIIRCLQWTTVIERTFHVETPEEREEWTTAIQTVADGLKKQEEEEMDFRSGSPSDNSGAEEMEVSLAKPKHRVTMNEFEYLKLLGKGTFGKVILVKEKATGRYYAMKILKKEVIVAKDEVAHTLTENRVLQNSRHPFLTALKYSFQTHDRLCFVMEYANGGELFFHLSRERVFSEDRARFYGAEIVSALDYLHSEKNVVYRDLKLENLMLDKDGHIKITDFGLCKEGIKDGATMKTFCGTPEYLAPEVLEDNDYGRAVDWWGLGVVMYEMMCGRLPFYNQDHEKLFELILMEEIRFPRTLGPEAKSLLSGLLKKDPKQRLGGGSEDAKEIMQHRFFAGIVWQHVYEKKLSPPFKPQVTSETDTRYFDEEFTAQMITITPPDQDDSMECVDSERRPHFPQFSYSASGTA
Sequence of LIMK2 (P53671 whole entry): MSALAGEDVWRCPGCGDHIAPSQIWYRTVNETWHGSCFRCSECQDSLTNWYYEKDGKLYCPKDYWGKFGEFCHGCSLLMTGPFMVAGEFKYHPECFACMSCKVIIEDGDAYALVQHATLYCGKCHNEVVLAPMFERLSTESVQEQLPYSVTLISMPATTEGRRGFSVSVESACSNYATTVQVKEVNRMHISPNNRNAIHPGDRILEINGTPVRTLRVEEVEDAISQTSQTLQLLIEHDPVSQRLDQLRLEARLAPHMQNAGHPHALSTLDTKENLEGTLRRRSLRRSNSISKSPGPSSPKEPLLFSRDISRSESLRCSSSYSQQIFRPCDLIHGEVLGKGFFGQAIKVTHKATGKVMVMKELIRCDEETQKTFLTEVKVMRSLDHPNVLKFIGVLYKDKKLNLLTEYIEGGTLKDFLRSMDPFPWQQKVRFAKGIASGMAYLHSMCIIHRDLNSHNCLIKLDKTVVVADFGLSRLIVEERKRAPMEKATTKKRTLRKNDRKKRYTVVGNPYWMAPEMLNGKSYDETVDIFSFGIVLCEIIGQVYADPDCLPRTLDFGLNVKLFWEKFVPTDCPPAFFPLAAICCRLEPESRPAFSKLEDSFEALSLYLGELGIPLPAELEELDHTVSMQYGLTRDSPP
Sequence of LRRK2 (Q5S007 whole entry): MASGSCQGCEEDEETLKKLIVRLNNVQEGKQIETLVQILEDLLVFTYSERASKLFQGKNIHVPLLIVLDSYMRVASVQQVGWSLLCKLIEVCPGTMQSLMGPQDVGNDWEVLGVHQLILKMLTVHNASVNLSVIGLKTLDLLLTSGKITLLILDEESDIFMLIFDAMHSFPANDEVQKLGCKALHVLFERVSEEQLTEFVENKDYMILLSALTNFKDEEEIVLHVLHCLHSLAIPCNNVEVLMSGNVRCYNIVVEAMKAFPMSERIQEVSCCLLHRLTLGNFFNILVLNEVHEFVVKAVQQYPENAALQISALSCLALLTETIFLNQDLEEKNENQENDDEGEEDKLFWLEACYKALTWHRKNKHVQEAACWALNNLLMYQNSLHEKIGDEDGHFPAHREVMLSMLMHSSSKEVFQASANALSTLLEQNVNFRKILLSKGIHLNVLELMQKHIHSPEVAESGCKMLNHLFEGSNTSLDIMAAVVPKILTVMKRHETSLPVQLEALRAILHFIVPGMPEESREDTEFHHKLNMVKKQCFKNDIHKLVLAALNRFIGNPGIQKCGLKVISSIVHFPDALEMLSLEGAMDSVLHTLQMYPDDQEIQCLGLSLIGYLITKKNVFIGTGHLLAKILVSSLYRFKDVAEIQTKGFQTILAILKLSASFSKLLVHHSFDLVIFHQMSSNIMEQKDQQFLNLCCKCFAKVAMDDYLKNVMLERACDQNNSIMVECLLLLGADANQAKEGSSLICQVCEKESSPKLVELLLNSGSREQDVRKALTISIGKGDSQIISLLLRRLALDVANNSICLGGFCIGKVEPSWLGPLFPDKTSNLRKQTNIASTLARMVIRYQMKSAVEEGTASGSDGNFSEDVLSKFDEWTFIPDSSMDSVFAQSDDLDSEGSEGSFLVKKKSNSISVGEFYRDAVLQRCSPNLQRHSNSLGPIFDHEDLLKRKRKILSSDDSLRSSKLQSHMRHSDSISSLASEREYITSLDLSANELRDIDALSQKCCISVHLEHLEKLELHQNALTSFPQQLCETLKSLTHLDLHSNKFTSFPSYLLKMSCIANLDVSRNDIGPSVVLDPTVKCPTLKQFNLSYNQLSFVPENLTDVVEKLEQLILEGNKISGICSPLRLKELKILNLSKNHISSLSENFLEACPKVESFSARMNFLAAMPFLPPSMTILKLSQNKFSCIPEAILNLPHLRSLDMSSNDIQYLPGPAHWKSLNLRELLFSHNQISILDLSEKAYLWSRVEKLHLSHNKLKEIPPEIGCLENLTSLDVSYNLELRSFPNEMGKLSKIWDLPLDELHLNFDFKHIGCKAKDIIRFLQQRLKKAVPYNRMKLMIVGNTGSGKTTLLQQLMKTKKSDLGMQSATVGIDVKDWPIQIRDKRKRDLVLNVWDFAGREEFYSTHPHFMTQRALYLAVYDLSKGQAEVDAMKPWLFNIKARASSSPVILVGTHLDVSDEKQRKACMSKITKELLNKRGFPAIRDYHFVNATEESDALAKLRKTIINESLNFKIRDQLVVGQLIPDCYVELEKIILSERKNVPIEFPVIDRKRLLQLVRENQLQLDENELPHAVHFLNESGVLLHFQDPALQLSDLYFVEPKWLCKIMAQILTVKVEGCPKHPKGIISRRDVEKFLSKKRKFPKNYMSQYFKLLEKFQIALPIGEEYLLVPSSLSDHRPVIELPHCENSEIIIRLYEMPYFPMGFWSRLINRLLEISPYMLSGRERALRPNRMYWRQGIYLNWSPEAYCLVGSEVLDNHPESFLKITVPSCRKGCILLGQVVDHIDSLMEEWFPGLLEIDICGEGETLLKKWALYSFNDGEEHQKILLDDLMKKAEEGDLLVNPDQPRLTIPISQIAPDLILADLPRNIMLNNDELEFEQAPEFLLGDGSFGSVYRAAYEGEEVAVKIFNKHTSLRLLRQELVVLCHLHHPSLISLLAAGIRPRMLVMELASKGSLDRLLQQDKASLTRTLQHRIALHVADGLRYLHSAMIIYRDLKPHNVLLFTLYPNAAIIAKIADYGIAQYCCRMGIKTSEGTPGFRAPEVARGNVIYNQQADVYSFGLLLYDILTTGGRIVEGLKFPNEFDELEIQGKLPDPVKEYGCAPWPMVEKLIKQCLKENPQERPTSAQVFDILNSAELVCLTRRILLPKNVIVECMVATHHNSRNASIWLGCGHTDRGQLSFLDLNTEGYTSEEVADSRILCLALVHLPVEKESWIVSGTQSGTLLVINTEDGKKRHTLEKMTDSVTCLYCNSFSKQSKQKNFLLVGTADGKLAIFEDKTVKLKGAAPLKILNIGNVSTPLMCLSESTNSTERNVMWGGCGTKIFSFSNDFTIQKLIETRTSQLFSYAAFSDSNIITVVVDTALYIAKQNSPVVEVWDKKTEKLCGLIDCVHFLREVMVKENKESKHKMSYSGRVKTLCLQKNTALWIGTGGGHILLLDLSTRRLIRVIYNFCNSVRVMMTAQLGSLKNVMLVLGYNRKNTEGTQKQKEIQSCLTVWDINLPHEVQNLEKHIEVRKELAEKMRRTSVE

Compound	remaining activity at 1 µM (AKT1) [%]	% enzyme activity (STK38/NDR1) [%]	CYP inhibition (CYP3A4-Midazolam) [µM]	% enzyme activity (GRK6) [%]	% enzyme activity (DMPK2) [%]	remaining activity at 1 µM (PKCmu/PRKD1) [%]	remaining activity at 1 µM (RSK3) [%]	% enzyme activity (NLK) [%]	remaining activity at 1 µM (NLK) [%]	Papp_AB (Caco-2 cells)	Papp_BA (Caco-2 cells)	% enzyme activity (LRRK2) [%]	% enzyme activity (BRSK2) [%]	% enzyme activity (MSK2/RPS6KA4) [%]	remaining activity at 1 µM (LIMK2) [%]	remaining activity at 1 µM (CDK2/Cyclin A1) [%]
COc1cc(-c2cncc(-c3ccc(N4CCN(C)CC4)cc3)c2C)cc(F)c1C(N)=O [Compound 26a, 2-Fluoro-6-methoxy-4-(4-methyl-5-(4-(4-methylpiperazin-1-yl)phenyl)pyridin-3-yl)benzamide]	106	90.38	> 50	107.43	82.52	90.1	92.2	20.81	22	5.5 10^-6 cm/s	16.2 10^-6 cm/s	59.73	60.95	96.56	102	99.9
COc1cc(-c2cncc(-c3ccc(N4C[C@@H](C)N(C)[C@@H](C)C4)cc3)c2C)cc(F)c1C(N)=O [Compound 26c, 2-Fluoro-6-methoxy-4-(4-methyl-5-(4-((3R,5S)-3,4,5-trimethylpiperazin-1-yl)phenyl)pyridin-3-yl)benzamide]	105	93.15	> 50	94.12	86.97	97.6	101	47.74	50.4	4.3 10^-6 cm/s	14.5 10^-6 cm/s	77.27	76.84	92.01	97.8	98.2
